Assay results published in patent US20220162191A1, “SMALL MOLECULE MODULATORS OF IL-17” (LEO PHARMA A/S, priority 2019, published 2022).

Target: T1, human IL-17AA (Homo sapiens, UniProt Q16552)
T1 construct: host or cells: HEK (human embryonic kidney) cells
T1 sequence (Q16552 24-155) 1: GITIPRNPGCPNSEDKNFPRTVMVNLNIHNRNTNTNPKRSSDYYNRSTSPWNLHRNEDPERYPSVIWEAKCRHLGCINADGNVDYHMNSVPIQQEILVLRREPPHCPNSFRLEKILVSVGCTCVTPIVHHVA
T1 sequence (Q16552 24-155) 2: T1 sequence (Q16552 24-155) 1
Experiment: IL-8 release assay in human epithelial keratinocytes adult (HEKa)
Assay type: cell-based
Details: 3 ng/ml human IL-17AA + 10 ng/ml human TNFalpha, 68-72 h, IL-8 by HTRF, read-out: Rel EC50 L-8 release assay
How it was run: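 Adult human keratinocytes in Epilife with HKGS minus hydrocortisone, treated with compound then stimulated with final 3 ng/ml HEK-derived human IL-17AA plus 10 ng/ml TNF-alpha for 68–72 h at 37 °C; TNF-alpha alone defines 100% inhibition. Secreted IL-8 by HTRF; relative IC50 and Emax from four-parameter fits.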

Row | SMILES | EC50 [µM]
1 | COCCOCCn1cc(-c2cccc(-c3ccc(Cl)c(CC(NC(=O)c4ccnn4C)C(=O)Nc4ccc(-c5c(C)n[nH]c5C)cc4)c3)c2)nn1 (centres unmarked) [Example 312, N-[1-[[2-chloro-5-[3-[1-[2-(2-methoxyethoxy)ethyl]triazol-4-yl]phenyl]phenyl]methyl]-2-[4-(3,5-dimethyl-1H-pyrazol-4-yl)anilino]-2-oxo-ethyl]-2-methyl-pyrazole-3-carboxamide] | 0.1 to 1
2 | Cn1cncc1-c1ccc(NC(=O)C(Cc2cc(-c3ccnc(N4CC[C@@H](CO)C4)c3)ccc2Cl)NC(=O)c2ccnn2C)cc1 (stereo partly drawn) [Example 186, N-[1-[[2-chloro-5-[2-[(3R)-3-(hydroxymethyl)pyrrolidin-1-yl]-4-pyridyl]phenyl]methyl]-2-[4-(3-methylimidazol-4-yl)anilino]-2-oxo-ethyl]-2-methyl-pyrazole-3-carboxamide] | 0.1 to 1
3 | Cc1n[nH]c(C)c1-c1ccc(NC(=O)[C@@H](NC(=O)C2(F)CC2)[C@@H]2CCCc3ccc(-c4cc(N5C[C@@H]6C[C@H]5CO6)ncn4)cc32)cc1 [Example 397, N-[(1S)-2-[4-(3,5-dimethyl-1H-pyrazol-4-yl)anilino]-1-[(1R)-7-[6-[(1S,4S)-2-oxa-5-azabicyclo[2.2.1]heptan-5-yl]pyrimidin-4-yl]tetralin-1-yl]-2-oxo-ethyl]-1-fluoro-cyclopropanecarboxamide] | < 0.1
4 | CC(C)n1cc(-c2ccc(Cl)c(CC(NC(=O)c3ccnn3C)C(=O)Nc3ccc(-c4cncn4C)cc3)c2)ccc1=O (centres unmarked) [Example 79, N-[1-[[2-chloro-5-(1-isopropyl-6-oxo-3-pyridyl)phenyl]methyl]-2-[4-(3-methylimidazol-4-yl)anilino]-2-oxo-ethyl]-2-methyl-pyrazole-3-carboxamide] | 0.1 to 1
5 | COCOc1ccc(-c2ccc(Cl)c(CC(NC(=O)c3ccnn3C)C(=O)Nc3ccc(-c4nncn4C)cc3)c2)cc1C(=O)N(C)C (centres unmarked) [Example 155, N-[1-[[2-chloro-5-[3-(dimethylcarbamoyl)-4-(methoxymethoxy)phenyl]phenyl]methyl]-2-[4-(4-methyl-1,2,4-triazol-3-yl)anilino]-2-oxo-ethyl]-2-methyl-pyrazole-3-carboxamide] | > 1
6 | Cc1n[nH]c(C)c1-c1ccc(NC(=O)[C@@H](NC(=O)C2(F)CC2)[C@@H]2CCCc3ccc(-c4cc(C)c(=O)n(C(C)C)c4)cc32)cc1 [Example 391, N-[(1S)-2-[4-(3,5-dimethyl-1H-pyrazol-4-yl)anilino]-1-[(1R)-7-(1-isopropyl-5-methyl-6-oxo-3-pyridyl)tetralin-1-yl]-2-oxo-ethyl]-1-fluoro-cyclopropanecarboxamide] | < 0.1
7 | COc1cc(NC(=O)[C@H](Cc2cc(-c3ccc(=O)n(C(C)C)c3)ccc2Cl)NC(=O)c2conc2C)ccc1-c1ccnn1C [Example 70, N-[(1S)-1-[[2-chloro-5-(1-isopropyl-6-oxo-3-pyridyl)phenyl]methyl]-2-[3-methoxy-4-(2-methylpyrazol-3-yl)anilino]-2-oxo-ethyl]-3-methyl-isoxazole-4-carboxamide] | > 1
8 | CCc1cc(-c2ccc(Cl)c(CC(NC(=O)c3ccnn3C)C(=O)Nc3ccc(-c4nncn4C)cc3)c2)ccc1C#N (centres unmarked) [Example 198, N-[1-[[2-chloro-5-(4-cyano-3-ethyl-phenyl)phenyl]methyl]-2-[4-(4-methyl-1,2,4-triazol-3-yl)anilino]-2-oxo-ethyl]-2-methyl-pyrazole-3-carboxamide] | > 1
9 | Cc1n[nH]c(C)c1-c1ccc(NC(=O)[C@H](Cc2cc(-c3ccnc(N4CCOCC4)c3)ccc2Cl)NC(=O)C2(F)CC2)cc1 [Example 225, N-[(1S)-1-[[2-chloro-5-(2-morpholino-4-pyridyl)phenyl]methyl]-2-[4-(3,5-dimethyl-1H-pyrazol-4-yl)anilino]-2-oxo-ethyl]-1-fluoro-cyclopropanecarboxamide] | < 0.1
10 | CC(C)n1cc(-c2ccc(Cl)c(CC(NC(=O)c3ccnn3C)C(=O)Nc3ccc(-c4cnn[nH]4)cc3)c2)ccc1=O (centres unmarked) [Example 83, N-[1-[[2-chloro-5-(1-isopropyl-6-oxo-3-pyridyl)phenyl]methyl]-2-oxo-2-[4-(1H-triazol-5-yl)anilino]ethyl]-2-methyl-pyrazole-3-carboxamide] | 0.1 to 1
11 | Cc1nccn1-c1ccc(NC(=O)C(Cc2cc(-c3ccc(=O)n(C(C)C)c3)ccc2Cl)NC(=O)c2ccnn2C)cc1 (centres unmarked) [Example 68, N-[1-[[2-chloro-5-(1-isopropyl-6-oxo-3-pyridyl)phenyl]methyl]-2-[4-(2-methylimidazol-1-yl)anilino]-2-oxo-ethyl]-2-methyl-pyrazole-3-carboxamide] | > 1

Now from value to compound:

Row | EC50 [µM] | SMILES
12 | 0.1 to 1 | Cn1cncc1-c1ccc(NC(=O)C(Cc2cc(-c3ccnc(OCC(F)(F)F)c3)ccc2Cl)NC(=O)c2ccnn2C)cc1 (centres unmarked) [Example 152, N-[1-[[2-chloro-5-[2-(2,2,2-trifluoroethoxy)-4-pyridyl]phenyl]methyl]-2-[4-(3-methylimidazol-4-yl)anilino]-2-oxo-ethyl]-2-methyl-pyrazole-3-carboxamide]
13 | < 0.1 | Cc1nocc1C(=O)N[C@@H](Cc1cc(-c2ccnc(C(O)C3CC3)c2)ccc1Cl)C(=O)Nc1ccc(-c2cncn2C)cc1 (stereo partly drawn) [Example 123, N-[(1S)-1-[[2-chloro-5-[2-[cyclopropyl(hydroxy)methyl]-4-pyridyl]phenyl]methyl]-2-[4-(3-methylimidazol-4-yl)anilino]-2-oxo-ethyl]-3-methyl-isoxazole-4-carboxamide]
14 | 0.1 to 1 | Cc1nocc1C(=O)N[C@@H](Cc1cc(-c2ccnc(C(O)C(C)C)c2)ccc1Cl)C(=O)Nc1ccc(-c2nncn2C)cc1 (stereo partly drawn) [Example 82, N-[(1S)-1-[[2-chloro-5-[2-(1-hydroxy-2-methyl-propyl)-4-pyridyl]phenyl]methyl]-2-[4-(4-methyl-1,2,4-triazol-3-yl)anilino]-2-oxo-ethyl]-3-methyl-isoxazole-4-carboxamide]
15 | 0.1 to 1 | Cc1nc(-c2ccc3c(c2)[C@H]([C@H](NC(=O)C2(F)CC2)C(=O)Nc2ccc(-c4c(C)n[nH]c4C)cc2)CC3)cc(N2C[C@@H]3C[C@H]2CO3)n1 [Example 366, N-[(1S)-2-[4-(3,5-dimethyl-1H-pyrazol-4-yl)anilino]-1-[(1R)-6-[2-methyl-6-[(1S,4S)-2-oxa-5-azabicyclo[2.2.1]heptan-5-yl]pyrimidin-4-yl]indan-1-yl]-2-oxo-ethyl]-1-fluoro-cyclopropanecarboxamide]
16 | 0.1 to 1 | Cc1cnn(C)c1-c1ccc(NC(=O)[C@@H](NC(=O)C2(F)CC2)[C@@H]2CCc3ccc(-c4cc(C)c(=O)n(C(C)C)c4)cc32)cc1 [Example 355, N-[(1S)-2-[4-(2,4-dimethylpyrazol-3-yl)anilino]-1-[(1R)-6-(1-isopropyl-5-methyl-6-oxo-3-pyridyl)indan-1-yl]-2-oxo-ethyl]-1-fluoro-cyclopropanecarboxamide]
17 | < 0.1 | Cc1n[nH]c(C)c1-c1ccc(NC(=O)[C@H](Cc2cc(-c3cccc(C(C)(C)N)c3)ccc2Cl)NC(=O)c2ccnn2C)cc1 [Example 59, N-[(1S)-1-[[5-[3-(1-amino-1-methyl-ethyl)phenyl]-2-chloro-phenyl]methyl]-2-[4-(3,5-dimethyl-1H-pyrazol-4-yl)anilino]-2-oxo-ethyl]-2-methyl-pyrazole-3-carboxamide]
18 | < 0.1 | Cc1n[nH]c(C)c1-c1ccc(NC(=O)[C@@H](NC(=O)C2(F)CC2)[C@@H]2CCCc3ccc(-c4ccnc(N5CCNCC5)c4)cc32)cc1 [Example 39, N-[(1S)-2-[4-(3,5-dimethyl-1H-pyrazol-4-yl)anilino]-2-oxo-1-[(1R)-7-(2-piperazin-1-yl-4-pyridyl)tetralin-1-yl]ethyl]-1-fluoro-cyclopropanecarboxamide]
19 | < 0.1 | Cc1n[nH]c(C)c1-c1ccc(NC(=O)[C@@H](NC(=O)c2ccnn2C)[C@@H]2CCc3ccc(-c4cnn(C5CC5)c4)cc32)cc1 [Example 8, N-[(1S)-1-[(1R)-6-(1-cyclopropylpyrazol-4-yl)indan-1-yl]-2-[4-(3,5-dimethyl-1H-pyrazol-4-yl)anilino]-2-oxo-ethyl]-2-methyl-pyrazole-3-carboxamide]
20 | 0.1 to 1 | Cc1ncn(C)c1-c1ccc(NC(=O)[C@H](Cc2cc(-c3ccnc(N4CCN(C)CC4)c3)ccc2Cl)NC(=O)c2ccnn2C)cc1 [Example 213, N-[(1S)-1-[[2-chloro-5-[2-(4-methylpiperazin-1-yl)-4-pyridyl]phenyl]methyl]-2-[4-(3,5-dimethylimidazol-4-yl)anilino]-2-oxo-ethyl]-2-methyl-pyrazole-3-carboxamide]
21 | 0.1 to 1 | Cc1cnn(C)c1-c1ccc(NC(=O)[C@@H](NC(=O)c2ccnn2C)[C@@H]2CCc3ccc(-c4cncc(C5CC5)n4)cc32)cc1 [Example 380, N-[(1S)-1-[(1R)-6-(6-cyclopropylpyrazin-2-yl)indan-1-yl]-2-[4-(2,4-dimethylpyrazol-3-yl)anilino]-2-oxo-ethyl]-2-methyl-pyrazole-3-carboxamide]
22 | 0.1 to 1 | Cn1cncc1-c1ccc(NC(=O)C(Cc2cc(-c3ccnc(N4CC5(CNC5)C4)c3)ccc2Cl)NC(=O)c2ccnn2C)cc1 (centres unmarked) [Example 194, N-[1-[[2-chloro-5-[2-(2,6-diazaspiro[3.3]heptan-6-yl)-4-pyridyl]phenyl]methyl]-2-[4-(3-methylimidazol-4-yl)anilino]-2-oxo-ethyl]-2-methyl-pyrazole-3-carboxamide]
23 | 0.1 to 1 | Cn1cncc1-c1ccc(NC(=O)C(Cc2cc(-c3ccnc(N4CC(O)C4)c3)ccc2Cl)NC(=O)c2ccnn2C)cc1 (centres unmarked) [Example 193, N-[1-[[2-chloro-5-[2-(3-hydroxyazetidin-1-yl)-4-pyridyl]phenyl]methyl]-2-[4-(3-methylimidazol-4-yl)anilino]-2-oxo-ethyl]-2-methyl-pyrazole-3-carboxamide]
